# Reference: publication PMC5075052, “Modulation of the Substitution Pattern of 5-Aryl-2-Aminoimidazoles Allows Fine-Tuning of Their Antibiofilm Activity Spectrum and Toxicity” (Antimicrobial Agents and Chemotherapy, 2016)
# Where two headings read alike, the source gives them in different places.
# Key:
# E. coli TG1 = assay: Monospecies bacterial biofilm inhibition, static peg assay; type: cell-based, Escherichia coli; details: Escherichia coli
# Procedure: A static peg assay, described previously ([27], [74]), was used for bacterial biofilm formation. The Calgary biofilm device consists of a platform carrying 96 polystyrene pegs (Nunc no. 445497) that fits as a microtiter plate lid, with 1 peg hanging into each microtiter plate well (Nunc no. 269789). Twofold serial dilutions of the compounds (dissolved in 100% dimethyl sulfoxide [DMSO] or ethanol) in 100 μl liquid broth (TSB diluted 1/20) per well were prepared in the microtiter plate in duplicate or triplicate with a maximum concentration of 1,600 μM and a minimum concentration of 0.8 μM. Subsequently, an overnight culture of S. Typhimurium ATCC 14028, P. aeruginosa PA14, E. coli TG1, S. epidermidis, S. aureus SH1000, or S. aureus ATCC 6538 (all grown in LB) was diluted 1:100 into TSB diluted 1/20 (or TSB for S. epidermidis, S. aureus SH1000, and S. aureus ATCC 6538), whereas overnight cultures of S. liquefaciens MG44 and B. cepacia LMG1222T were diluted 1:50 into TSB diluted 1/20. P. gingivalis ATCC 33277 cultures were diluted in TSB diluted 1/20 to have a final concentration of 1 × 10^8 cells/ml. Next, 100 μl was added to each well of the microtiter plate, resulting in a total volume of 200 μl medium per well (final concentration range of compounds, 800 μM [2% DMSO or ethanol] to 0.4 μM [0.001% DMSO or ethanol]). In the next step, the pegged lid was placed on the microtiter plate and the plate was incubated for 24 h or 48 h at 25°C or 37°C without shaking. At 37°C, the plates were placed in a sealed container with wet towels on the bottom to prevent evaporation of the growth medium. Biofilms of P. gingivalis ATCC 33277 were grown anaerobically at 37°C for 72 h. During this incubation period, biofilms were formed on the surface of the pegs. After incubation, the optical density at 600 nm (OD600) for the planktonic cells in the microtiter plate was measured using a Synergy MX multimode reader (BioTek, Winooski, VT). This gives a first indication of the effect of the compounds on planktonic growth. For quantification of biofilm formation, the pegs were washed once in 200 μl PBS. The remaining attached bacteria were stained for 30 min with 200 μl 0.1% (wt/vol) crystal violet in an isopropanol-methanol-PBS solution (1:1:18, vol/vol). Excess stain was rinsed off by placing the pegs in a 96-well plate filled with 200 μl distilled water per well. After air drying of the pegs (30 min), the dye bound to the adherent biofilm was extracted with 30% glacial acetic acid (200 μl per well of a 96-well plate). The optical density at 570 nm (OD570) of each well was measured using a Synergy MX multimode reader (BioTek, Winooski, VT). The concentration of each compound needed to inhibit biofilm formation by 50% (BIC50) and the concentration of each compound needed to inhibit planktonic growth by 50% (IC50) were determined from the concentration gradient by using nonlinear curve fitting (GraphPad Prism software, version 5; GraphPad Software, Inc., La Jolla, CA). In the same assay, the effect on planktonic growth was evaluated. The activity was considered biofilm specific if the BIC50 was at least two times lower than the IC50. Data represent the means from at least 3 technical repeats with the corresponding 95% confidence intervals (provided in the supplemental material).
# [1] = test system: S. aureus ATCC 6538 + S. epidermidis; assay: Mixed-species S. aureus-S. epidermidis biofilm assay (peg, crystal violet); type: cell-based, Staphylococcus aureus + Staphylococcus epidermidis; details: 37°C
# Procedure: Overnight cultures of S. aureus ATCC 6538 and S. epidermidis were grown in LB medium and were diluted 1/200 in the same vial of TSB to form a mixed-culture suspension. Next, 2-fold serial dilutions of the compounds (dissolved in 100% DMSO or ethanol) in 100 μl TSB medium per well were prepared in the microtiter plate (Nunc no. 269789) in duplicate or triplicate with a maximum concentration of 1,600 μM and a minimum concentration of 0.8 μM. One hundred microliters of the mixed-culture suspension was added to each well of the microtiter plate, resulting in a total volume of 200 μl medium per well (final concentration range of compounds, 800 μM [2% DMSO or ethanol] to 0.4 μM [0.001% DMSO or ethanol]). The cells were then incubated for 48 h at 37°C, which allowed biofilm formation on the pegs (Nunc no. 269789) of the Calgary biofilm device. After 24 h, fresh medium with compounds was added to the wells, and after 48 h, the biofilm was colored with crystal violet as described above ([74]). The OD570 (biofilm) and OD600 (planktonic) were measured, and the BIC50 and the IC50, respectively, were calculated.
# [2] = test system: E. coli TG1 + P. aeruginosa PA14; assay: Mixed-species E. coli-P. aeruginosa biofilm assay (peg, crystal violet); type: cell-based, Escherichia coli + Pseudomonas aeruginosa
# Procedure: Overnight cultures of E. coli TG1 and P. aeruginosa PA14 were diluted 1/100 in the same vial of TSB diluted 1/20 to form a mixed-culture suspension. Next, 2-fold serial dilutions of the compounds (dissolved in 100% DMSO or ethanol) in 100 μl liquid broth (TSB diluted 1/20) per well were prepared in the microtiter plate of the Calgary biofilm device (Nunc no. 269789) in duplicate or triplicate with a maximum concentration of 1,600 μM and a minimum concentration of 0.8 μM. One hundred microliters of the mixed-culture suspension was added to each well of the microtiter plate, resulting in a total volume of 200 μl medium per well (final concentration range of compounds, 800 μM [2% DMSO or ethanol] to 0.4 μM [0.001% DMSO or ethanol]). The pegged lid was placed on the microtiter plate, and the plate was incubated for 72 h at 37°C, which allowed biofilm formation on the pegs (Nunc no. 269789) of the Calgary biofilm device. After 72 h, the biofilm was colored with crystal violet as described above ([74]). The OD570 (biofilm cells) and OD600 (planktonic cells) were measured, and the BIC50 and the IC50, respectively, were calculated.
# [3] = TG1, E. coli TG1, 37°C, read-out: BIC50
# [4] = TG1, E. coli TG1, 37°C, read-out: IC50 (planktonic growth)
# [5] = 48 h, mixed S. aureus ATCC 6538 + S. epidermidis biofilm, read-out: BIC50
# [6] = 48 h, mixed S. aureus ATCC 6538 + S. epidermidis, read-out: IC50 (planktonic growth)
# [7] = 72 h, mixed E. coli TG1 + P. aeruginosa PA14, 37°C, read-out: IC50 (planktonic growth)
# [8] = 72 h, mixed E. coli TG1 + P. aeruginosa PA14 biofilm, 37°C, read-out: BIC50
# [9] = TG1, E. coli TG1, 25°C, read-out: BIC50
# [10] = TG1, E. coli TG1, 25°C, read-out: IC50 (planktonic growth)
# [11] = mixed S. aureus ATCC 6538 + S. epidermidis, read-out: IC50 (planktonic growth)
# [12] = mixed E. coli TG1 + P. aeruginosa PA14, 37°C, read-out: IC50 (planktonic growth)
# [13] = mixed E. coli TG1 + P. aeruginosa PA14 biofilm, 37°C, read-out: BIC50
# [14] = mixed S. aureus ATCC 6538 + S. epidermidis biofilm, read-out: BIC50
Structure (SMILES),IC50 (E. coli TG1; [3]),IC50 (E. coli TG1; [4]),"IC50 [1, 5]","IC50 [1, 6]","IC50 [2, 7]","IC50 [2, 8]",IC50 (E. coli TG1; [9]),IC50 (E. coli TG1; [10]),"IC50 [1, 11]","IC50 [2, 12]","IC50 [2, 13]","IC50 [1, 14]"
CCCCCn1c(-c2ccccc2)cnc1N [Compound 1],~47.8 µM,34.1 µM,44.2 µM,~356 µM,60.7 µM,74.3 µM,,,,,,
CCCCCCCCn1c(-c2ccc(Cl)cc2)cnc1N [Compound 2],~6.5 µM,7.7 µM,~7.2 µM,~9.9 µM,19.9 µM,36.8 µM,,,,,,
CC(C)CNc1ncc(-c2ccc(Cl)cc2)[nH]1 [Compound 3],110 µM,30 µM,~26.3 µM,~140 µM,> 400 µM,7.4 µM,,,,,,
CCCCNc1ncc(-c2ccc(Br)cc2)[nH]1 [Compound 4],84.7 µM,23 µM,6.8 µM,~118 µM,> 400 µM,17.8 µM,,,,,,
Clc1ccc(-c2cnc(NC3CCCC3)[nH]2)cc1 [Compound 5],~45.7 µM,17.1 µM,~66.6 µM,~91.7 µM,> 400 µM,0.5 µM,,,,,,
Brc1ccc(-c2cnc(NCCn3cc(C4CC4)nn3)[nH]2)cc1 [Compound 6],~192 µM,183 µM,33.9 µM,~392 µM,> 400 µM,34.6 µM,,,,,,
CCCCCCCCn1c(-c2ccccc2)cnc1NCC(C)C [Compound 8a],41.2 µM,10.2 µM,,,,,~47.2 µM,51.2 µM,~26.1 µM,> 400 µM,6.6 µM,
CCCCCCCCn1c(-c2ccc(Cl)cc2)cnc1NCC(C)C [Compound 8b],330 µM,6.1 µM,,,,,29.5 µM,91.9 µM,~22.2 µM,> 400 µM,> 400 µM,1.1 µM
CCCCCCCCn1c(-c2ccc(Br)cc2)cnc1NCC(C)C [Compound 8c],> 400 µM,74.1 µM,,,,,> 400 µM,150 µM,> 400 µM,> 400 µM,> 400 µM,5 µM
CCCCCCCCn1c(-c2ccc(Cl)c(Cl)c2)cnc1NCC(C)C [Compound 8d],> 400 µM,46.3 µM,,,,,> 400 µM,255 µM,> 400 µM,> 400 µM,> 400 µM,> 400 µM
CCCCCCCCn1c(-c2ccccc2)cnc1NC1CCCC1 [Compound 8e],~27.6 µM,10.5 µM,,,,,~26.7 µM,189 µM,~23.6 µM,> 400 µM,101 µM,~3 µM
CCCCCCCCn1c(-c2ccc(Cl)cc2)cnc1NC1CCCC1 [Compound 8f],306 µM,370 µM,,,,,29.1 µM,> 400 µM,~22.5 µM,> 400 µM,400 µM,2 µM
CCCCCCCCn1c(-c2ccc(Br)cc2)cnc1NC1CCCC1 [Compound 8g],> 400 µM,237 µM,,,,,43 µM,> 400 µM,15.5 µM,> 400 µM,> 400 µM,~5.6 µM
CCCCCCCCn1c(-c2ccc(Cl)c(Cl)c2)cnc1NC1CCCC1 [Compound 8h],> 400 µM,> 400 µM,,,,,> 400 µM,> 400 µM,~25.1 µM,> 400 µM,> 400 µM,4.9 µM
